In patent US20150274719A1, “AMINO-SUBSTITUTED IMIDAZO[1,2-A]PYRIDINECARBOXAMIDES AND THEIR USE” (BAYER PHARMA AKTIENGESELLSCHAFT, priority 2012, published 2015):

Molecular target: T1, recombinant guanylate cyclase reporter cell line (Rattus norvegicus, UniProt P19686+P20595)
T1 construct: expressed in transfected cells; host or cells: recombinant reporter cell line
T1 sequence (P19686 1-690): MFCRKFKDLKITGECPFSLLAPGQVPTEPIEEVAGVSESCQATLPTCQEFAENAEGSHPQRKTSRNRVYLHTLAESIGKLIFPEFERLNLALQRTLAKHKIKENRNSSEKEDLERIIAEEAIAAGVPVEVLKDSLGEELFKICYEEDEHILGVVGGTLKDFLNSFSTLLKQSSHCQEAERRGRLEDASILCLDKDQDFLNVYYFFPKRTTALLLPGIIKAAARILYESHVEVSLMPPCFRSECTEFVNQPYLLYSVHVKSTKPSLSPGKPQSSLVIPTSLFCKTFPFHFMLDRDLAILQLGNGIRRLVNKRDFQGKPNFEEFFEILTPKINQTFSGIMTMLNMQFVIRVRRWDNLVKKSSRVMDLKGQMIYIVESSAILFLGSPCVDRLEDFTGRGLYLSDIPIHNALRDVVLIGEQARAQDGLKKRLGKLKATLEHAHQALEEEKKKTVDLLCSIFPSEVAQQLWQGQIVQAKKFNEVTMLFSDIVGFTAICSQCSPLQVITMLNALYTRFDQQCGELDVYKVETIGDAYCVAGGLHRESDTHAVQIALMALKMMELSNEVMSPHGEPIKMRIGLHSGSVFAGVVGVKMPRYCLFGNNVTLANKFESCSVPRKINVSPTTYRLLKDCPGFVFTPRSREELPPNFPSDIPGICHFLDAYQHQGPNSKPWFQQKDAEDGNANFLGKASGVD
T1 sequence (P20595 1-619): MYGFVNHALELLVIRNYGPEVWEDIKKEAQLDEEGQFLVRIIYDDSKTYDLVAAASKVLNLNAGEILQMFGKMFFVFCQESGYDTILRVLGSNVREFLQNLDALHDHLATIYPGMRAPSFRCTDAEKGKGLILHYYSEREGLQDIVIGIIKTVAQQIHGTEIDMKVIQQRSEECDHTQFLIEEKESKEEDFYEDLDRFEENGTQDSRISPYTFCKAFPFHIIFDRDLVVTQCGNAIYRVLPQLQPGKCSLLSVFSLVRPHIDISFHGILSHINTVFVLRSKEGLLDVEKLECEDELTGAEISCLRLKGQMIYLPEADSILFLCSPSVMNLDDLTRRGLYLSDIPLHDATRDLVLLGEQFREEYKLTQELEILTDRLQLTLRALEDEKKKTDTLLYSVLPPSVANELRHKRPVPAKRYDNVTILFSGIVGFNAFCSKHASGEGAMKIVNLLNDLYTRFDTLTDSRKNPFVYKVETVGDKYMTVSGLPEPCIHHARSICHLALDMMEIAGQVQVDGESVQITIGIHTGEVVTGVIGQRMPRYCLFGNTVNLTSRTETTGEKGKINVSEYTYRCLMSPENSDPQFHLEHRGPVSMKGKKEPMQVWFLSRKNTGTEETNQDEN
Assay: Action on recombinant guanylate cyclase reporter cell line
Format: cell-based
Settings: in some cases mean values from individual determinations
How it was run: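 Each compound is applied to a cell line engineered with a reporter for recombinant guanylate cyclase. The minimal effective concentration is then noted, in part as a mean across separate determinations.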

Structure (SMILES) | MEC (minimal effective concentration) [µM]
Cc1nc2c(OCC3CCCCC3)cccn2c1C(=O)NC(CN)c1ccc(F)c(F)c1 (single isomer, unassigned) [Example 178, ent-N-[2-Amino-1-(3,4-difluorophenyl)ethyl]-8-(cyclohexylmethoxy)-2-methylimidazo[1,2-a]-pyridine-3-carboxamide] | 0.30
Cc1nc2c(OCC3CCCCC3)cccn2c1C(=O)NC(CN)c1ccc(F)c(F)c1 (single isomer, unassigned) [Example 179, ent-N-[2-Amino-1-(3,4-difluorophenyl)ethyl]-8-(cyclohexylmethoxy)-2-methylimidazo[1,2-a]-pyridine-3-carboxamide] | 1.00
Cc1nc2c(OCc3c(F)cccc3F)cccn2c1C(=O)NC12CNCCC1C2 (single isomer, unassigned) [Example 184, ent-N-(3-Azabicyclo[4.1.0]hept-1-yl)-8-[(2,6-difluorobenzyl)oxy]-2-methylimidazo[1,2-a]pyridine-3-carboxamide] | 1.00
Cc1nc2c(OCc3c(F)cccc3F)cccn2c1C(=O)NC12CNCCC1C2 (single isomer, unassigned) [Example 185, ent-N-(3-Azabicyclo[4.1.0]hept-1-yl)-8-[(2,6-difluorobenzyl)oxy]-2-methylimidazo[1,2-a]pyridine-3-carboxamide] | 1.00
Cc1nc2c(OCc3c(F)cccc3F)cc(Cl)cn2c1C(=O)NCC(N)CC(F)(F)F (single isomer, unassigned) [Example 192, ent-N-(2-Amino-4,4,4-trifluorobutyl)-6-chloro-8-[(2,6-difluorobenzyl)oxy]-2-methylimidazo[1,2-a]pyridine-3-carboxamide] | 0.30
Cc1nc2c(OCc3c(F)cccc3F)cc(Cl)cn2c1C(=O)NCC(N)CC(F)(F)F (single isomer, unassigned) [Example 193, ent-N-(2-Amino-4,4,4-trifluorobutyl)-6-chloro-8-[(2,6-difluorobenzyl)oxy]-2-methylimidazo[1,2-a]pyridine-3-carboxamide] | 1.00
CCC(C)(N)CNC(=O)c1c(C)nc2c(OCc3c(F)cccc3F)cc(Cl)cn12 (single isomer, unassigned) [Example 195, ent-N-(2-Amino-2-methylbutyl)-6-chloro-8-[(2,6-difluorobenzyl)oxy]-2-methylimidazo[1,2-a]-pyridine-3-carboxamide] | 0.30

Results, then the molecule that gave them:

MEC (minimal effective concentration) [µM] | Structure (SMILES)
1.00 | COCC(C)(N)CNC(=O)c1c(C)nc2c(OCc3c(F)cccc3F)cc(Cl)cn12 (single isomer, unassigned) [Example 196, ent-N-(2-Amino-3-methoxy-2-methylpropyl)-6-chloro-8-[(2,6-difluorobenzyl)oxy]-2-methylimidazo[1,2-a]pyridine-3-carboxamide]
1.00 | COCC(C)(N)CNC(=O)c1c(C)nc2c(OCc3c(F)cccc3F)cc(Cl)cn12 (single isomer, unassigned) [Example 197, ent-N-(2-Amino-3-methoxy-2-methylpropyl)-6-chloro-8-[(2,6-difluorobenzyl)oxy]-2-methylimidazo[1,2-a]pyridine-3-carboxamide]
0.30 | COCC(C)(N)CNC(=O)c1c(C)nc2c(OCc3c(F)cccc3F)cc(C)cn12 (single isomer, unassigned) [Example 198, ent-N-(2-Amino-3-methoxy-2-methylpropyl)-8-[(2,6-difluorobenzyl)oxy]-2,6-dimethylimidazo-[1,2-a]pyridine-3-carboxamide]
0.30 | COCC(C)(N)CNC(=O)c1c(C)nc2c(OCc3c(F)cccc3F)cc(C)cn12 (single isomer, unassigned) [Example 199, ent-N-(2-Amino-3-methoxy-2-methylpropyl)-8-[(2,6-difluorobenzyl)oxy]-2,6-dimethylimidazo-[1,2-a]pyridine-3-carboxamide]
